Experimental findings from ChEMBL document CHEMBL2069188, “Structural requirements for the antitubercular quaternized triflupromazine pharmacophore” (Bioorg Med Chem Lett, 2012) are described below.

pIC50: −log10 of the molar value. ≈ marks a conversion by molar mass, not a printed value.

The test system of one assay is Vero. Briefly: Cytotoxicity against african green monkey Vero cells […] after 3 days. The note with it: Chlorocebus sabaeus, 72 h. The format is cell-based.
Assay [1] is described as follows: Selectivity index, ratio of IC50 for african green monkey Vero cells to MIC for Mycobacterium tuberculosis H37Rv. In kind it is functional.
The subject of assay [2] is Mycobacterium tuberculosis. The assay is described as follows: Antitubercular activity against Mycobacterium tuberculosis H37Rv by microplate alamar blue assay. In kind it is functional.

For `C[N+](C)(CCCN1c2ccccc2Sc2ccc(C(F)(F)F)cc21)Cc1ccc(Br)cc1.[Br-]`, the pIC50 with Vero is under 3.89. Further, the “Selectivity Index” value in assay [1] is over 21. In assay [2], this compound returned an MIC90 of 6 µM.
For `C[N+](C)(CCCN1c2ccccc2Sc2ccc(C(F)(F)F)cc21)Cc1ccc(I)cc1.[Br-]` the same measures were 4.03, over 16 and 5.9 µM.
Compound `FC(F)(F)c1ccc2c(c1)N(Cc1cn(Cc3ccc(Cl)cc3)nn1)c1ccccc1S2` showed a negative logarithm of the IC50 (pIC50) with Vero of under 3.89. The MIC90 in assay [2] is over 100 µM.
`CCCC[N+](C)(C)CCCN1c2ccccc2Sc2ccc(C(F)(F)F)cc21` yielded an MIC90 in assay [2] of 53.2 µM.
As to `C#CC[N+](C)(C)CCCN1c2ccccc2Sc2ccc(C(F)(F)F)cc21`, the MIC90 in assay [2] was determined as 121 µM.
On the same count and under the same terms, for `C[N+](C)(CC#N)CCCN1c2ccccc2Sc2ccc(C(F)(F)F)cc21` the value was over 128 µM; for `C=CC[N+](C)(C)CCCN1c2ccccc2Sc2ccc(C(F)(F)F)cc21`, over 128 µM.
In turn, `C=CC[N+](C)(C)CCCN1c2ccccc2Sc2ccccc21` had an MIC90 in assay [2] of over 128 µM.
On the same count and under the same terms, for `C#CC[N+](C)(C)CCCN1c2ccccc2Sc2ccccc21` the value was over 128 µM.
`C[N+](C)(CCCN1c2ccccc2Sc2ccc(C(F)(F)F)cc21)Cc1ccc(F)cc1.[Cl-]` gave a negative-log IC50 (pIC50) in the assay on Vero of under 3.89. In addition, the “Selectivity Index” value in assay [1] is recorded as over 11. In assay [2], this compound displayed an MIC90 of 11.9 µM.
Consider `C[N+](C)(CCCN1c2ccccc2Sc2ccc(C(F)(F)F)cc21)Cc1ccc(Cl)cc1.[Cl-]`, for which the pIC50 in the assay with Vero is under 3.89. Besides, the “Selectivity Index” value in assay [1] is over 14. The compound further registered an MIC90 in assay [2] of 9 µM.
Consider `CO[C@H]1/C=C/O[C@@]2(C)Oc3c(C)c(O)c4c(O)c(c(/C=N/N5CCN(C)CC5)c(O)c4c3C2=O)NC(=O)/C(C)=C\C=C\[C@H](C)[C@H](O)[C@@H](C)[C@@H](O)[C@@H](C)[C@H](OC(C)=O)[C@@H]1C` [RIFAMPIN], for which the pIC50 with Vero was under 4.00. The “Selectivity Index” value in assay [1] is given as over 909. In assay [2], the MIC90 turned out to be 0.09 µM (≈ 0.0741 µg/mL).

One may read the pIC50 as the negative decadic logarithm of the IC50, by convention in mol/L. By MIC90 is commonly meant an inhibitory concentration at the 90% level, which refers to growth in some studies and to a panel of isolates in others.
